Laboratory results from patent US10073082B2, “Proteasome inhibition assay and methods of use” (UNIVERSITY HEALTH NETWORK, priority 2013, dated 2018).

Columns and labels:
Format in all cases: cell-based, human
[1] = test system: P-ERK (P-Thr202/P-Tyr204) in peripheral blood monocytes; assay: ERK phosphorylation in LPS activated monocytes from pretreated whole blood; settings: LPS stimulated monocytes, single late ERK peak 8-10 minutes, FIG. 19
Procedure: (§1) Whole blood samples from normal human donors were collected. 100 μL aliquots of the whole blood were inserted into the bottom of 12×75 mm tubes. In order to reduce the potential for contamination of the sample with unfixed cells, blood was removed from the side of the tubes with a cotton swab. 1-2 μL of a proteasome effector was added to a first portion of the tubes and these tubes were incubated for 2 hours at 37° C. in a water bath. In this example, the proteasome effector was Bortezomib or MG-132, both proteasome inhibitors. Following pretreatment with the proteasome effector, 2 μL of […] stock solution (100 ng) of an IκB degradation agonist was added to the tubes and the tubes were incubated from 1 minute to 60 minutes at 37° C. in a water bath. In this example, the agonist was lipopolysaccharide (LPS). A second portion of the tubes were treated with the IκB degradation agonist and no proteasome effector. 2 μL of an IκB degradation agonist was added to these tubes and the tubes were incubated from 1 minute to 60 minutes as described above. For control tubes, 2 μL of phosphate buffered saline (PBS) was added to the tubes and the tubes were incubated as described above.
(§2) Following incubation, the cells were fixed and permeabilized with a PerFix-P® kit (Beckman Coulter, Inc., Brea. Calif.) according to the manufacturer's instructions. The fixed and permeabilized cells were then washed with 2 mL of Wash Buffer (PBS (w/o Ca++/Mg++) with 2% fetal bovine serum (FBS), sterile filtered (0.22 μm filter)) in the tubes and centrifuged at 500×g for 4 minutes. The cell pellet was resuspended in 2 mL of cold (4° C.) Wash Buffer, centrifuged at 500×g for 4 minutes, and the supernatant was aspirated.
Following the above wash steps, the fixed and permeabilized cells were resuspended in 100 μL of cold Wash Buffer comprising antibodies to specific intracellular antigens (e.g., signaling targets including P-ERK, P-Akt, P-p38, P-SAPK, P-S6, and antibodies to IκB). The antibodies were labeled with different fluorochromes (e.g. fluorophores) to facilitate their-individual measurement of the intracellular antigens. […] For example, anti-CD14 antibodies were included to specifically label monocytes, anti-CD3 antibodies or anti-CD19 antibodies were included to specifically label T or B-cells respectively, and/or anti-CD38/CD138 antibodies were included to specifically label plasma cells. The cells were incubated with the antibodies for 30 minutes at room temperature and then the cells were washed in 2 mL of cold Wash Buffer and centrifuged as described above. The supernatant was aspirated and the cell pellet was resuspended in 350 μL of Resuspension Buffer (PerFix-P® kit) and analyzed on a flow cytometer (GALLIOS™) using a protocol with defined population gates and series of dual parameter histograms. A CD45-KO vs. SS dual parameter histogram was collected and a gate around the leukocyte population based on the CD45+ fluorescence and SS characteristics was drawn to exclude debris (CD45 negative events). A minimum of 2,500 CD14+ events were collected. […] The collected flow cytometric data was analyzed using KALUZA™ software.
Phosphorylation of signaling pathways activated by LPS, including ERK, Akt (activated by PI3 Kinase), and the ribosomal S6 protein (a marker of protein synthesis) were also monitored together with the degradation of IκB. […] The degradation of IκB in cells pretreated with MG-132 or GDC-0941 was monitored by flow cytometry as described in Example 1. […]

[2] = test system: peripheral blood monocytes; assay: IκB degradation agonists in whole blood: IκB degradation and signaling pathway activation in monocytes; settings: for Pathways Activated: Target Cell Population: Monocytes
Procedure: as §1, §2
(§3) Following the above wash steps, the fixed and permeabilized cells were resuspended in 100 μL of cold Wash Buffer comprising antibodies to specific intracellular antigens (e.g., signaling targets including P-ERK, P-Akt, P-p38, P-SAPK, P-S6, and antibodies to IκB). The antibodies were labeled with different fluorochromes (e.g. fluorophores) to facilitate their-individual measurement of the intracellular antigens. In order to target specific cell populations in the assay, antibodies capable of differentiating cell populations within the blood sample were also included in some of the tubes. For example, anti-CD14 antibodies were included to specifically label monocytes, anti-CD3 antibodies or anti-CD19 antibodies were included to specifically label T or B-cells respectively, and/or anti-CD38/CD138 antibodies were included to specifically label plasma cells. The cells were incubated with the antibodies for 30 minutes at room temperature and then the cells were washed in 2 mL of cold Wash Buffer and centrifuged as described above. The supernatant was aspirated and the cell pellet was resuspended in 350 μL of Resuspension Buffer (PerFix-P® kit) and analyzed on a flow cytometer (GALLIOS™) using a protocol with defined population gates and series of dual parameter histograms. A CD45-KO vs. SS dual parameter histogram was collected and a gate around the leukocyte population based on the CD45+ fluorescence and SS characteristics was drawn to exclude debris (CD45 negative events). A minimum of 2,500 CD14+ events were collected. A stop count region was set from the CD14-PC7 vs. SS histogram gated on monocytes. Dual parameter histograms gated on the appropriate populations were created to measure the populations of interest. The collected flow cytometric data was analyzed using KALUZA™ software.
(§4) Phosphorylation of signaling pathways activated by TNF-α, including ERK, Akt, and the ribosomal S6 protein, was monitored together with the degradation of IκB in peripheral blood WBCs. Whole blood samples were treated, activated, and processed as described in Example 1 and the degradation of IκB in peripheral blood cells was monitored by flow cytometry as described in Example 1. The IκB degradation agonist used in this example was TNF-α. […]

granulocytes = assay: IκB degradation agonists in whole blood: IκB degradation and signaling pathway activation in granulocytes; settings: Target Cell Population: Granulocytes
Procedure: as §1, §2
Following the above wash steps, the fixed and permeabilized cells were resuspended in 100 μL of cold Wash Buffer comprising antibodies to specific intracellular antigens (e.g., signaling targets including P-ERK, P-Akt, P-p38, P-SAPK, P-S6, and antibodies to IκB). The antibodies were labeled with different fluorochromes (e.g. fluorophores) to facilitate their-individual measurement of the intracellular antigens. […] The supernatant was aspirated and the cell pellet was resuspended in 350 μL of Resuspension Buffer (PerFix-P® kit) and analyzed on a flow cytometer (GALLIOS™) using a protocol with defined population gates and series of dual parameter histograms. A CD45-KO vs. SS dual parameter histogram was collected and a gate around the leukocyte population based on the CD45+ fluorescence and SS characteristics was drawn to exclude debris (CD45 negative events). […] The collected flow cytometric data was analyzed using KALUZA™ software.

[3] = test system: peripheral blood lymphocytes; assay: IκB degradation agonists in whole blood: IκB degradation and signaling pathway activation in lymphocytes; settings: for Pathways Activated: Target Cell Population: Lymphocytes (subpopulation)
Procedure: as §1, §2, §3, §4

[4] = pathway: P-ERK/MAP kinase (Ras > Raf)
[5] = pathway: Tpl-2 > ERK/MAP kinase

Molecule: N#CC(=C(/N)Sc1ccccc1N)/C(C#N)=C(\N)Sc1ccccc1N [U0126]
- ERK activation [1]: inhibited

Molecule: CCCCCCCCCCCCCC(=O)O[C@@H]1[C@@H](C)[C@@]2(O)[C@@H](C=C(CO)C[C@]3(O)C(=O)C(C)=C[C@@H]23)[C@@H]2C(C)(C)[C@]12OC(C)=O [PMA]
- Pathways Activated ([2]; pathway: (IκB is not degraded)): (IκB is not degraded)
- Pathways Activated [2, 4]: P-ERK/MAP kinase (Ras > Raf)
- ERK activation in monocytes ([2]; agonist alone): activation of ERK
- degradation of IκB in monocytes ([2]; agonist alone): no degradation of IκB
- Pathways Activated (granulocytes): P-ERK/MAP kinase
- Pathways Activated ([3]; pathway: IκB > NFκB (PKC?)): IκB > NFκB (PKC?)
- Pathways Activated [3, 4]: P-ERK/MAP kinase (Ras > Raf)
- Pathways Activated ([3]; pathway: P-S6 (P-ERK)): P-S6 (P-ERK)
- Akt activation in lymphocytes ([3]; agonist alone): not activated
- ERK activation in lymphocytes ([3]; agonist alone): activation of ERK
- degradation of IκB in lymphocytes ([3]; agonist alone): stimulated the degradation of IκB
- lymphocytes with both degradation of IκB and activation of ERK ([3]; over the 15 min time course): approximately 50%

B1: CD40L: IκB degradation agonist (protein, UniProt P29965 113-261, looked up)
CD40 ligand, soluble form: MQKGDQNPQIAAHVISEASSKTTSVLQWAEKGYYTMSNNLVTLENGKQLTVKRQGLYYIYAQVTFCSNREASSQAPFIASLCLKSPGRFERILLRAANTHSSAKPCGQQSIHLGGVFELQPGASVFVNVTDPSQVSHGTGFTSFGLLKL
- Pathways Activated ([2]; pathway: IκB > NFκB): IκB > NFκB
- Pathways Activated ([2]; pathway: P38 MAP kinase): P38 MAP kinase
- Pathways Activated [2, 5]: Tpl-2 > ERK/MAP kinase
- Akt activation in monocytes ([2]; agonist alone): not activated
- ERK activation in monocytes ([2]; agonist alone): low level of ERK activation
- decrease of the level of IκB ([2]; monocytes, between 6 and 15 minutes post treatment): approximately 60%
- Pathways Activated ([3]; pathway: IκB > NFκB (Tpl-2)): IκB > NFκB (Tpl-2)
- Pathways Activated ([3]; pathway: PI3 kinase > Akt): PI3 kinase > Akt
- Pathways Activated [3, 5]: Tpl-2 > ERK/MAP kinase
- Akt activation in lymphocytes ([3]; agonist alone): not activated
- ERK activation in lymphocytes ([3]; agonist alone): Neither ERK nor S6 were activated
- S6 activation in lymphocytes ([3]; agonist alone): Neither ERK nor S6 were activated
- decrease of the level of IκB ([3]; lymphocytes, between 40 and 45 minutes post treatment): approximately 40%
